Among the data in patent US10398723B1, “Hyaluronan-containing composition and use thereof for mitigation and/or prevention of inflammation and/or pain” (Viscos, LLC, priority 2015, dated 2019) are inflammatory cell activation values, retold here.

For this experiment, the system named is whole blood culture. The experiment in a line: inflammatory cell activation (CD69, CD25 expression) in whole blood culture. As to conditions: samples from human subjects; 0.006 mg/mL, 0.05 g/mL or 0.4 mg/mL in culture medium; dose-dependent. The format is cell-based. Here is the method: A dose of 0.006 mg/mL, […] or 0.4 mg/mL (concentration of formulation in culture medium) was employed, but any dose less than 0.006 mg/mL or greater than 0.4 mg/mL or between 0.006 mg/mL and 0.4 mg/mL (concentration of formulation in any diluent) is likewise within the scope of this disclosure. […] Activation of inflammatory cells was measured, and is verified by assays known in the art, by expression of CD69, a protein expressed on activated white blood cells including T lymphocytes, NK cells, monocytes and PMN cells. Activation of inflammatory cells was measured, and is verified by assays known in the art, by expression of CD25, the alpha chain of the low affinity interleukin-2 (IL-2) receptor. […] An increase such as that observed in this Example may be, by way of example and not of limitation, of at least about 1%, or of at least about 2%, or of at least about 5%, or of at least about 10%, or of at least about 20%, or of at least about 30%, or of at least about 40%, or of at least about 50%, or of at least about 60%, or of at least about 70%, or of at least about 80%, or of at least about 90%. A statistically significant decrease is a function of sample size and variability. […]

Turning to Hyaluronan [HA], the inflammatory cell activation entry is given as “decrease”.
Next, `CS(C)(=O)=O` [MSM, methylsulfonylmethane]: “decrease”.
